From patent US20240417408A1, “SMALL MOLECULE INHIBITORS OF KRAS G12C MUTANT” (MERCK SHARP & DOHME CORP., priority 2021, published 2024)

Legend:
[1] = target: T1, Biotinylated KRAS G12C protein and GST-tagged Ras binding domain of c-RAF (Homo sapiens, UniProt P01116, C118S/C51S/C80L/G12C); assay: Test Example 5: RAS:RAF-RBD binding assay (TR-FRET); details: 30-minute incubation with compound, then GST-c-RAF RBD, read-out: cRaf IC50
T1 construct: biotin acceptor peptide (Avi-type, […]
Method: Test Example 5: Procedure for RAS:RAF-RBD Binding Assay
The RAF-Ras binding domain (RBD) protein interaction assay utilizes Biotinylated KRAS G12C protein (SEQ ID NO: 3) and the GST-tagged Ras binding domain of c-RAF (residues 50-132) from Jena Biosciences). Compounds are added to KRAS and then after a 30-minute incubation time the RAF-RBD and detection antibodies are added. Small molecule inhibitors that block the interaction of c-RAF-RBD prevent generation of a TR-FRET signal.
Biotinylated KRAS G12C protein is diluted to 20 nM in assay buffer (20 mM HEPES pH 7.5, 150 mM sodium chloride, 10 mM magnesium chloride, and 0.01% Tween20).
(§1) Each test compound (10 mM stock in DMSO) is diluted in DMSO to make a 10-point, 3-fold dilution series in a 384-well low dead volume microplate (Labcyte, catalog #LP-0200). Once titrations are made, 50 nL of the diluted compounds is acoustically dispensed into 384-well plates (Corning, catalog #3820) using an Echo 655 (Labcyte).
Each well of the assay plate receives 5 μL of Biotinylated KRAS G12C assay solution and is incubated at room temperature for 30 minutes. Each well then receives 5 μL of 100 nM GST-c-RAF RBD protein and a 1:100 dilution of both anti-GST-d2 (Cisbio catalog #61GSTDLA) and Strepavidin-Tb cryptate (Cisbio catalog #610SATLA) in assay buffer and the plate is mixed and briefly centrifuged followed by a 60 minute incubation at room temperature.
(§2) The time-resolved fluorescence resonance energy transfer signal of both plates is measured on an Envision (PerkinElmer) plate reader: dichroic mirror=LANCE/DELFIA DUAL/Bias; Emission1=615 nm; Emission2=665 nm; delay time=60 s. The signal of each well is determined as the ratio of the emission at 665 nm to that at 615 nm. Percent effect of each well is determined after normalization to control wells containing DMSO (no effect) or a saturating concentration of inhibitor (max effect). The apparent effect as a function of compound concentration is fit to a four-parameter logistic equation.

[2] = target: T2, biotinylated KRAS protein containing G12C/C51S/C80L/C118S mutations (SEQ ID NO: 3) (Homo sapiens, UniProt P01116, C118S/C51S/C80L/G12C); assay: Test Example 4: SOS-catalyzed nucleotide exchange assay (TR-FRET); type: biochemical; details: 60-minute incubation with compound, then SOS and GTP, read-out: GNE IC50
T2 construct: biotin acceptor peptide (Avi-type, […]
T2 sequence (P01116 with tags, fused parts or gaps isoform P01116-2 G12C/C51S/C80L/C118S): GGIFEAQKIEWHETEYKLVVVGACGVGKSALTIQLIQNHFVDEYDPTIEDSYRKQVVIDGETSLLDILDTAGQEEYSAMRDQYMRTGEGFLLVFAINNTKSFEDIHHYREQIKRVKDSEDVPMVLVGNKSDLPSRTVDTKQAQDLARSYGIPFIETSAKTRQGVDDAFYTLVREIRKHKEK
Method: Test Example 4: Procedure for SOS-Catalyzed Nucleotide Exchange Assay
The SOS-catalyzed nucleotide exchange assay utilizes a preformed complex of recombinant biotinylated KRAS protein containing G12C/C51S/C80L/C118S mutations (SEQ ID NO: 3) (referred to as Biotinylated KRAS G12C protein hereafter), Bodipy-GDP, and Terbium-streptavidin. Compounds are added to this complex and then after a 60-minute incubation time the mixture is treated with SOS and unlabeled GTP. Small molecule inhibitors stabilize the Bodipy-GDP complex whereas the untreated protein rapidly exchanges Bodipy-GDP for unlabeled GTP resulting in reduced TR-FRET signal.
Biotinylated KRAS G12C protein is diluted to 2 μM in an EDTA buffer (20 mM HEPES, 50 mM sodium chloride, 10 mM EDTA, and 0.01% Tween) and incubated at room temperature for one hour. This mixture is then further diluted to 90 nM in an assay buffer (20 mM HEPES, 150 mM sodium chloride, 10 mM magnesium chloride, and 0.005% Tween) containing 15 nM of Terbium-Streptavidin (Invitrogen, catalog #PV3577) and 900 nM of Bodipy-GDP (Invitrogen, G22360) and incubated at room temperature for six hours. This solution is referred to as Biotinylated KRAS G12C stock solution and is then diluted to 9 nM in assay buffer to give the KRAS G12C assay solution.
as §1, with “10” for “50”, “into a” for “into”, “plate” for “plates”, “550” for “655”
Each well receives 6 μL of Biotinylated KRAS G12C assay solution using a BioRAPTR (Beckman Coulter) and is incubated at room temperature for 60 minutes in a humidified chamber. Each well then receives 3 μL of 120 nM recombinant human SOS protein and 9 mM GTP (Sigma, G8877) in assay buffer and is incubated at room temperature for 60 minutes in a humidified chamber.
as §2, with “reader: Excitation filter=340 nm; emission 1=495 nm; emission 2=520 nm;” for “reader:”, “mirror=D400/D505;” for “mirror=LANCE/DELFIA DUAL/Bias; Emission1=615 nm; Emission2=665 nm;”, “time=100 μs.” for “time=60 s.”, “520” for “665”, “495” for “615”

T1 sequence (P01116 with tags, fused parts or gaps isoform P01116-2 G12C/C51S/C80L/C118S): as above

`C#Cc1cccc2cccc([C@@H]3Cc4nc(OC[C@@]56CCCN5C[C@H](F)C6)nc(N5CCN(C(=O)/C=C/CN6CCC(OC)CC6)[C@@H](CC#N)C5)c4CO3)c12` (single isomer, unassigned) [Example 25b] was tested, and the IC50 [1] was 74 nM and the IC50 [2] was 1.6 nM.
`COC1CCN(C/C=C/C(=O)N2CCN(c3nc(OC[C@@]45CCCN4C[C@H](F)C5)nc4c3COC(c3nc(N)cc(C)c3C(F)(F)F)C4)C[C@@H]2CC#N)CC1` (stereo partly drawn) [Example 22, 2-((2S)-4-(7-(6-amino-4-methyl-3-(trifluoromethyl)-pyridin-2-yl)-2-(((2R,7aS)-2-fluorotetrahydro-1H-pyr-rolizin-7a(5H)-yl)methoxy)-7,8-dihydro-5H-pyrano[4,3-d]pyrimidin-4-yl)-1-((E)-4-(4-methoxypiperidin-1-yl)-but-2-enoyl)piperazin-2-yl)-acetonitrile] gave an IC50 [1] of 122 nM and an IC50 [2] of 5.6 nM.
For `C#Cc1cccc2cccc(C3Cc4nc(OC[C@]5(CO)CC5(F)F)nc(N5CCN(C(=O)/C=C/CN6CCC(OC)CC6)[C@@H](CC#N)C5)c4CO3)c12` (stereo partly drawn) [Example 24, 2-((2S)-4-(2-(((R)-2,2-difluoro-1-(hydroxymethyl)cyclopropyl)methoxy)-7-(8-ethynylnaphthalen-1-yl)-7,8-dihydro-5H-pyrano[4,3-d]pyrimidin-4-yl)-1-((E)-4-(4-methoxypiperidin-1-yl)but-2-enoyl)piperazin-2-yl)acetonitrile], the IC50 [1] was greater than 50000 nM and the IC50 [2] was 55 nM.
`COC1CCN(C/C=C/C(=O)N2CCN(c3nc(OC[C@@]45CCCN4C[C@H](F)C5)nc4c3COC(c3c(F)cc(F)c5ccc(N)nc35)C4)C[C@@H]2CC#N)CC1` (single isomer, unassigned) [Example 23a] showed an IC50 [1] greater than 50000 nM and an IC50 [2] of 131 nM.
With `COC1CCN(C/C=C/C(=O)N2CCN(c3nc(OC[C@@]45CCCN4C[C@H](F)C5)nc4c3COC(c3c(F)cc(F)c5ccc(N)nc35)C4)C[C@@H]2CC#N)CC1` (single isomer, unassigned) [Example 23b] the IC50 [1] was 12700 nM and the IC50 [2] was 16 nM.
For `COC1CCN(C/C=C/C(=O)N2CCN(c3nc(OC[C@@]45CCCN4C[C@H](F)C5)nc4c3CCC3(CCCc5ccccc53)O4)C[C@@H]2CC#N)CC1` (stereo partly drawn) [Example 26, 2-((2S)-4-(2′-(((2R,7aS)-2-fluorotetrahydro-1H-pyrrolizin-7a(5H)-yl)methoxy)-3,4,5′,6′-tetrahydro-2H-spiro[naphthalene-1,7′-pyrano[2,3-d]pyrimidin]-4′-yl)-1-((E)-4-(4-methoxypiperidin-1-yl)but-2-enoyl)piperazin-2-yl)acetonitrile], the IC50 [1] was 48800 nM and the IC50 [2] was 80.8 nM.
